These results are taken from US8795742B2 (priority 2006, dated 2014).

The assay has as its system H5 serum type avian influenza virus. More on the design: species or system yellow chicken. The note with it: in vivo.

As to `CC(N)C12CC3CC(CC(C3)C1)C2` (stereo not drawn) [Group C, Rimantadine], the Effective rate turned out to be 42.5%, the Number of death is recorded as 23 and the Rate of death is 57.5%.
